Laboratory results taken from patent US20070178532A1 (priority 2003, published 2007).

Legend:
CD8+ T cells in PBMCs = assay: HLA-GFP acquisition by CD8+ T cells in PBMCs mixed with peptide-pulsed HmyA2GFP cells (FACS); settings: PBMC of HAM/TSP patient #5
[1] = system: tetramer-positive T cells from PBMC of HAM/TSP patients; assay: CD27 and CD45RA expression in HLA-GFP-acquiring tetramer-positive T cells after peptide presentation by HmyA2GFP cells; type: cell-based, human
PBMCs = assay: peptide loaded HLA-A*201 tetramer analysis of PBMCs (FACS); settings: PBMC of HAM/TSP patient #5
[2] = system: tetramer-positive T cells from PBMC of HAM/TSP patients; assay: intracellular perforin staining of tetramer-positive T cells (FACS); type: cell-based, human
Description: The above-described phenotypically defined T cell populations were further characterized with respect to perforin expression and cytolytic activity. For intracellular perforin staining, cells were fixed and permeabilization with Cytofix/CytoPerm kit (BD Pharmingen), and stained with monoclonal antibody specific for perforin (BD Pharmingen). The cells were subjected to further FACS analysis and the resulting data was analyzed with Cellquest software (Becton Dickinson) to obtain the mean fluorescence intensity (MFI) for the cell populations.

[3] = CMV tetramer-positive cells, After contact with HmyA2GFP cells (1 hour)
[4] = HLA-GFP-acquiring tetramer-positive cells after stimulation with peptide-pulsed HmyA2GFP cells

Sequence: NLVPMVATV [CMV pp65]
- frequency of peptide-specific T cells in the PBMC population by the inventive method (CD8+ T cells in PBMCs): 6.34%
- % CD27+ CD4SRA− [1, 3]: 2.51%
- % CD27+ CD45RA+ [1, 3]: 3.05%
- % CD27− CD45RA+ [1, 3]: 42.625%
- % CD27− CD45RA− [1, 3]: 51.813%
- change of CD27+CD45RA− (memory) subset [1, 4]: concomitant decrease
- change of CD27-CD45+ (effector) subset [1, 4]: no significant change
- change of CD27-CD45RA− (effector/memory) subset [1, 4]: significant increase
- peptide-specific T cells in the PBMCs by tetramer (PBMCs): 6.57%
- Perforin Expression Levels (in MFI) ([2]; HLA acquiring CMV tetramer-positive cells): 9.543 MFI
- change in the amount of perforin in virus-specific T cells after peptide stimulation ([2]; after stimulation with peptide-pulsed HmyA2GFP cells): significant decrease
